These results are taken from the NIST ThermoML archive (doi:10.1021/acs.jced.8b00699).

± gives the expanded uncertainty stated by the source.

For the data set the following is noted: Liquid, Closed cell (Static) method.

Broadly, the vapor or sublimation pressure is the equilibrium pressure above the liquid or solid. With `CCCCCCC#N` [heptanenitrile], the “vapor or sublimation pressure” value runs as follows: (238.15 K) 0.00048 ± 0.00011 kPa; (243.15 K) 0.00085 ± 0.00012 kPa; (248.15 K) 0.00146 ± 0.00013 kPa; (253.15 K) 0.00246 ± 0.00015 kPa; (258.15 K) 0.00408 ± 0.00019 kPa; (263.15 K) 0.00662 ± 0.00028 kPa. Besides, the “vapor or sublimation pressure” value by setting is: (268.15 K) 0.01055 ± 0.00042 kPa; (273.15 K) 0.01647 ± 0.00057 kPa; (273.66 K) 0.01723 ± 0.00058 kPa; (278.16 K) 0.02527 ± 0.00071 kPa; (283.15 K) 0.03801 ± 0.00091 kPa; (288.15 K) 0.05634 ± 0.0012 kPa. For the same compound, the “vapor or sublimation pressure” value by setting is: (293.15 K) 0.0819 ± 0.0017 kPa; (298.15 K) 0.1175 ± 0.0023 kPa; (303.16 K) 0.1649 ± 0.0027 kPa; (308.18 K) 0.2302 ± 0.0035 kPa.

Turning to `CCCCCCCCC#N` [nonanenitrile], the “vapor or sublimation pressure” value (273.66 K) came to 0.00148 ± 0.00013 kPa; the “vapor or sublimation pressure” value (278.15 K) worked out at 0.00231 ± 0.00015 kPa; the “vapor or sublimation pressure” value (283.15 K) is 0.0037 ± 0.00018 kPa; the “vapor or sublimation pressure” value (288.15 K) is recorded as 0.00585 ± 0.00025 kPa; the “vapor or sublimation pressure” value (293.15 K) is reported as 0.00907 ± 0.00037 kPa; the “vapor or sublimation pressure” value (298.15 K) is given as 0.01387 ± 0.00053 kPa. In addition, the “vapor or sublimation pressure” value is reported as 0.02079 ± 0.00064 kPa (303.16 K) and 0.03074 ± 0.00079 kPa (308.18 K).

Consider `CCCCCCCC#N` [octanenitrile], for which the “vapor or sublimation pressure” value turned out to be 0.00012 ± 0.00011 kPa (238.15 K); 0.00021 ± 0.00011 kPa (243.15 K); 0.00037 ± 0.00012 kPa (248.15 K); 0.00064 ± 0.00012 kPa (253.15 K); 0.00108 ± 0.00012 kPa (258.15 K); 0.0018 ± 0.00014 kPa (263.15 K). In addition, the “vapor or sublimation pressure” value (268.15 K) is reported as 0.00295 ± 0.00016 kPa; the “vapor or sublimation pressure” value (273.15 K) stood at 0.00476 ± 0.00021 kPa; the “vapor or sublimation pressure” value (273.65 K) is 0.00502 ± 0.00022 kPa; the “vapor or sublimation pressure” value (278.15 K) was determined as 0.00758 ± 0.00031 kPa; the “vapor or sublimation pressure” value (283.15 K) was found to be 0.01175 ± 0.00047 kPa; the “vapor or sublimation pressure” value (288.15 K) came out at 0.01796 ± 0.00059 kPa. The “vapor or sublimation pressure” value reads like this: (293.15 K) 0.02693 ± 0.00073 kPa; (298.15 K) 0.0398 ± 0.00094 kPa; (303.15 K) 0.05793 ± 0.0013 kPa; (308.15 K) 0.08314 ± 0.0017 kPa.
